Assay results reported in patent US20070269570A1, “FLAVONOID SUGAR ADDITION PRODUCTS, METHOD FOR MANUFACTURE AND USE THEREOF” (priority 2006, published 2007).

Assays:
Assay type in all cases: in vivo, human
[1] = Sensory tasting in alkalized cocoa powder drink; details: for sensory evaluation of bitterness versus control: 50 ppm added (ppm refer to 1 kg of water), 8 persons
Method: The modified product of example 6 was further compared to alkalized cocoa powder (5 g/200 ml)+50 ppm Epicat-6-C-Glc (ppm refer to 1 kg of water).
The modified product of example 6 was further compared to alkalized cocoa powder (5 g/200 ml)+50 ppm Cat-6,8-C-di-Glc (ppm refer to 1 kg of water).
The examples were repeated with the catechin and epicatechin galactosides and the same sensory results were obtained.

[2] = Triangle test of taste modification of theobromine solution; details: for taste: compared with theobromine reference; for % of panellists who detected a difference: eight panelists; for taste intensity: theobromine reference bitterness 5.0
From the text: To investigate the influence of taste modification of (−)-catechin-8-C-β-D-glucopyranoside on theobromine in comparison to the aglycons (+)-catechin and (−)-epicatechin as well as further C-glycosides like apigenin-8-C-β-D-glucopyranoside (vitexin) and apigenin-6-C-β-D-glucopyranoside (isovitexin), theobromine (3 mmol/L) was spiked with different concentrations of (−)-catechin-8-C-β-D-glucopyranoside, (+)-catechin, (−)-epicatechin as well as apigenin-8-C-β-D-glucopyranoside (vitexin) and apigenin-6-C-β-D-glucopyranoside (isovitexin).

[3] = Sensory tasting in non-alkalized cocoa powder drink; details: 50 ppm added
[4] = Sensory tasting in astringent dark chocolate; details: 77 mg of 7.8% solution in propylene glycol per 20 g dark chocolate
Method: 77 mg of a solution of catechin-8-C-glucoside dissolved in propylene glycol (7.8%) was added to 20 g of molten dark chocolate with strong astringent taste characteristics. After solidification, the chocolate was tasted against a non-treated reference chocolate.
Food ingredients were prepared starting from green tea extract (5 g) or grape seed extract (5 g) by reaction with glucose (4 g) and 3% K2C03 in 100 ml of water. The reaction was done at 80° C. for exactly 20 min. The resulting flavour reaction mix was freeze-dried to obtain a dark red-brown mass which was then added to astringent tasting chocolate at various levels. In a first screening sensory tasting, the optimum level of addition was identified as 300 ppm.
Ingredients prepared from grape seed extract and tea extract in such a manner when added to dark chocolate at 330 ppm decreased the perceived sensory perception of astringency in the dark chocolate.

[5] = Sensory tasting against pure theobromine; details: ca. 10 ppm added to 600 ppm theobromine
From the text: Theobromine (600 ppm)+ca. 10 ppm 8-C-glucosylated catechin.

[6] = Sensory tasting against grape seed extract; details: ca. 10 ppm added to 2000 ppm grape seed extract

## OCC1OC(c2c(O)c3c(c(C4OC(CO)C(O)C(O)C4O)c2O)OC(c2ccc(O)c(O)c2)C(O)C3)C(O)C(O)C1O (single isomer, unassigned; (-)) [Cat-6,8-C-di-Glc, (−)-cat-echin-6-C-8-C-β-D-diglucopyranoside]
[1]
  sensory evaluation of bitterness versus control: lower maximum bitterness intensity than control, a flatter bitterness profile and a “softer” bitterness quality

## OC[C@H]1O[C@@H](c2c(O)cc3c(c2O)C[C@@H](O)[C@@H](c2ccc(O)c(O)c2)O3)[C@H](O)[C@@H](O)[C@@H]1O [Epicat-6-C-Glc, (−)-epicatechin-6-C-β-D-glucopyranoside]
[1]
  sensory evaluation of bitterness versus control: lower maximum bitterness intensity than control, a flatter bitterness profile and a “softer” bitterness quality

## O=c1cc(-c2ccc(O)cc2)oc2cc(O)c([C@@H]3O[C@H](CO)[C@@H](O)[C@H](O)[C@H]3O)c(O)c12 [isovitexin, apigenin-6-C-β-D-glucopyranoside]
[2]; 2.2 μmol/L added
  taste: bitterness
  % of panellists who detected a difference: 0%
  taste intensity: 5.0
[2]; 22.2 μmol/L added
  taste: bitterness
  % of panellists who detected a difference: 0%
  taste intensity: 5.0
[2]; 222/L μmol/L added
  taste: bitterness
  % of panellists who detected a difference: 50%
  taste intensity: 4.5

## Oc1cc(O)c2c(c1)O[C@H](c1ccc(O)c(O)c1)[C@@H](O)C2 [(+)-catechin]
[2]; 2.2 μmol/L added
  taste: bitterness
  % of panellists who detected a difference: 0%
  taste intensity: 5.0
[2]; 22.2 μmol/L added
  taste: more cocoa like
  % of panellists who detected a difference: 50%
  taste intensity: 5.0
[2]; 222/L μmol/L added
  taste: more cocoa like
  % of panellists who detected a difference: 50%
  taste intensity: bitterness (4.0)

## OC[C@H]1O[C@@H](c2c(O)cc(O)c3c2O[C@@H](c2ccc(O)c(O)c2)[C@H](O)C3)[C@H](O)[C@@H](O)[C@@H]1O [(−)-catechin-8-C-β-D-glucopyranoside]
[2]; 2.2 μmol/L added
  taste: softer, more
  % of panellists who detected a difference: 10%
  taste intensity: (4.5)
[2]; 22.2 μmol/L added
  taste: softer, more pleasant
  % of panellists who detected a difference: 50%
  taste intensity: less bitter (3.5)
[2]; 222/L μmol/L added
  taste: softer, more pleasant
  % of panellists who detected a difference: 100%
  taste intensity: less bitter (1.0)
[3]
  taste perception versus reference without addition: milder and less astringent
[4]
  astringency versus non-treated reference chocolate: lower
  bitterness versus non-treated reference chocolate: remained unchanged
  tasters who noticed a "smoothing out" effect: 4 of 5
[1]; 50 ppm added, 5 persons
  taste perception versus reference without addition: less bitter and less astringent
[5]
  bitterness intensity compared to pure theobromine: did not a perceive a decrease in bitterness intensity
  timing of bitterness perception compared to pure theobromine: delay in bitterness perception
[6]
  astringency versus reference of grape seed extract: decrease in astringency

## O=c1cc(-c2ccc(O)cc2)oc2c([C@@H]3O[C@H](CO)[C@@H](O)[C@H](O)[C@H]3O)c(O)cc(O)c12 [vitexin, apigenin-8-C-β-D-glucopyranoside]
[2]; 2 μmol/L added
  % of panellists who detected a difference: 0%
  taste intensity: 5.0
[2]; 22.2 μmol/L added
  % of panellists who detected a difference: 0%
  taste intensity: 5.0
[2]; 222/L μmol/L added
  % of panellists who detected a difference: 50%
  taste intensity: 4.5

## Oc1cc(O)c2c(c1)OC(c1ccc(O)c(O)c1)C(O)C2 (single isomer, unassigned; (-)) [(−)-epicatechin]
[2]; 2.2 μmol/L added
  taste: bitterness
  % of panellists who detected a difference: 0%
  taste intensity: 5.0
[2]; 22.2 μmol/L added
  taste: more cocoa like
  % of panellists who detected a difference: 50%
  taste intensity: 5.0
[2]; 222/L μmol/L added
  taste: more cocoa like
  % of panellists who detected a difference: 50%
  taste intensity: bitterness (4.0)

## OC[C@H]1O[C@@H](c2c(O)cc3c(c2O)C[C@@H](O)[C@H](c2ccc(O)c(O)c2)O3)[C@H](O)[C@@H](O)[C@@H]1O [Cat-6-C-Glc, (−)-catechin-6-C-β-D-glucopyranoside]
[1]
  sensory evaluation of bitterness versus control: lower maximum bitterness intensity than in the control sample, a flat bitterness profile and a “softer bitterness quality
